How the values were obtained:
DA-3 cell line = assay: Viability (MTT test), melphalan with β-Car^OX; format: cell-based; conditions: Mus musculus
Text: The benefit of the cellular GSH-lowering effect is illustrated by what happens to the viability of DA-3 cells, using the MTT test, treated with both β-Car^OX and melphalan, a classical anticancer agent.

NB4 [1] = assay: Cytostatic effect (Hoechst 33258 DNA fluorescence, 3 days); format: cell-based, human; parameters: key: +: activity higher; 0: similar to; −: less than the activity of β-Car^OX; conditions: ranked relative to β-Car^OX across six concentrations 2.5-22.5 μM
Method: (§1) Fractions were tested for cytostatic properties and ability to induce differentiation. The results were compared with those obtained for β-Car^OX, which served as a reference indicating whether or not fractionation was leading to fractions with enhanced activity. Retinoic acid and/or β-carotene were used as controls in some of the cell lines tested in order to differentiate their effects from that of β-Car^OX. All of the samples were tested in identical ‘by weight’ concentrations. Comparisons have been done on a pseudo molarity scale by dividing the weight of sample used by the molecular weight of β-carotene (537 Da). Fractions were tested in human colon carcinoma (HCT116), human neuroblastoma (IMR32), human acute promyelocytic leukemia (NB4), human chronic myelogenous leukemia (K562), and mouse keratinocytes (Balb/c/MK).
(§2) Fractions have been ranked relative to β-Car^OX by dividing each growth inhibition value at each sample concentration by the corresponding β-Car^OX value and determining qualitatively by inspection the trends across the six sample concentrations. Activities of fractions are expressed as “+”, “0”, and “−”, indicating activity higher, similar to, and less than the activity of β-Car^OX, respectively.

HCT116 = assay: as above; format: cell-based, human; parameters: key: +: activity higher; 0: similar to; −: less than the activity of β-Car^OX; conditions: ranked relative to β-Car^OX across six concentrations 2.5-45 μM
Method: as §1, §2

IMR32 [2] = assay: as above; format: cell-based, human; parameters: key: +: activity higher; 0: similar to; −: less than the activity of β-Car^OX; conditions: ranked relative to β-Car^OX across six concentrations 2.5-45 μM
Method: as §1, §2

K562 = assay: as above; format: cell-based, human; parameters: key: +: activity higher; 0: similar to; −: less than the activity of β-Car^OX; conditions: ranked relative to β-Car^OX across six concentrations 2.5-22.5 μM
Method: as §1, §2

Balb/c/MK keratinocytes = assay: Expression of cytokeratins in keratinocytes; format: cell-based, mouse; conditions: Ca^++ 1.8 mM, Retinoic Acid 3 μM, β-Car^OX 30 μM; for IA, intensity of expression per cell, Cytokeratins 1 and 10: control 4.4; for IA, intensity of expression per cell, panel (CAMON) of Cytokeratins: control 60.7; for A, percentage of immunopositive cells expressing Cytokeratins 1 and 10: control 90.3; for A, percentage of immunopositive cells expressing a panel (CAMON) of Cytokeratins: control 93.7
Text: Qualitative data were provided in the first phase of research for the differentiation-inducing effect of β-Car^OX upon the mouse Balb/c/MK keratinocyte cell line.
Cytokeratins 1 and 10 are high molecular weight proteins which are increasingly expressed with the progression of the differentiation program. […] Cells cultured in low calcium media remain proliferative. […] The apparently smaller effect of β-Car^OX compared to retinoic acid is due not to lower potency but to a delayed action and similar results are obtained using a panel of other cytokeratins (Cytokeratin coctail from CAMON containing cytokeratins 1–8, 10, 13, 14, 15, 16, 19).

NB4 [3] = assay: Differentiating properties of combinations of β-Car^OX and retinoic acid; format: cell-based, human; conditions: Retinoic Acid L 0.1–1 μM alone
Text: (§3) Given the cell differentiation-inducing properties of β-Car^OX and some of its fractions, it is instructive not only to compare the effects obtained with those of the better known all-trans retinoic acid, which is recognized as being able to regulate differentiation capacities of several mammalian cell types, but to determine also the effect upon cells when β-Car^OX and retinoic acid are used together. Table 4 presents qualitative data illustrating the results obtained with various combinations of β-Car^OX and retinoic acid in both the NB4 and IMR32 cell lines.
(§4) When an equipotent concentration of β-Car^OX is combined with retinoic acid, their differentiation-inducing effects cancel out. However, when the concentration of either one of them is increased relative to the other, differentiation-induction is restored.

IMR32 [4] = assay: as above; format: cell-based, human; conditions: Retinoic Acid L 1–2.5 μM alone
Text: as §3, §4

NB4 cells = assay: Cell cycling, flow cytometry of intracellular DNA content; format: cell-based, human; conditions: synchronized populations, controls 22 hours
Method: There is no G1 block. This effect is due to a lengthening of the duration of the cell cycle. […] The data were acquired using flow cytometry analysis of the individual intracellular DNA content of cells from synchronized populations. Sampling was done every 5 hours over a period of 48 hours.

NB4 cell line = assay: Expression of differentiation markers CD33, CD11b, CD15 at five days; format: cell-based, human; conditions: combined treatments 1 μM RA and 7.5 μM β-Car^OX or fraction
Method: The cell differentiation-inducing effects of the fractions were determined qualitatively by observation of morphological changes in cell lines and quantitatively by measuring the expression of characteristic protein markers using monoclonal antibodies and flow cytometry. […] Many differentiation markers are expressed transiently during the differentiation program. In the NB4 cell line, protein CD33 is associated with early stages of differentiation, followed by protein CD11b, an intermediate marker, and eventually by protein CD15, an advanced differentiation marker. Enhanced differentiation therefore will be characterized by a decrease in the expression and intensity of the CD33 marker and an increase in expression and intensity of the CD15 marker.

IMR32 cell line = assay: Expression of NF and GFAP markers; format: cell-based, human; conditions: β-Car^OX 0 μM
Text: Expression of glial fibrillary acidic protein, GFAP, is a useful marker indicating differentiation towards glial cells.

## N[C@@H](Cc1ccc(N(CCCl)CCCl)cc1)C(=O)O [Melphalan]
DA-3 cell line; DA-3, in presence of β-Car^OX 5 μM
  IC50: 40 µM
DA-3 cell line; DA-3, in presence of β-Car^OX 7.5 μM
  IC50: 44 µM
DA-3 cell line; DA-3, in presence of β-Car^OX 10 μM
  IC50: 6.6 µM
DA-3 cell line; DA-3, in presence of β-Car^OX 20 μM
  IC50: 6.8 µM
DA-3 cell line; DA-3, β-Car^OX 0 μM
  IC50: 100 µM

## CC1=C(/C=C/C(C)=C/C=C/C(C)=C/C=C/C=C(C)/C=C/C=C(C)/C=C/C2=C(C)CCCC2(C)C)C(C)(C)CCC1 [β-Carotene]
NB4 [1]
  Cytostatic Effect On Cell Lines, NB4: −
HCT116
  Cytostatic Effect On Cell Lines, HCT116: −
IMR32 [2]
  Cytostatic Effect On Cell Lines, IMR32: 0
K562
  Cytostatic Effect On Cell Lines, K562: −

## [Ca+2] [Ca^++]
Balb/c/MK keratinocytes
  IA, intensity of expression per cell, Cytokeratins 1 and 10: 13.8 arbitrary units
  IA, intensity of expression per cell, panel (CAMON) of Cytokeratins: 87.2 arbitrary units
  A, percentage of immunopositive cells expressing Cytokeratins 1 and 10: 96.5
  A, percentage of immunopositive cells expressing a panel (CAMON) of Cytokeratins: 97.6

## CC1=C(/C=C/C(C)=C/C=C/C(C)=C/C(=O)O)C(C)(C)CCC1 [All trans Retinoic Acid]
Balb/c/MK keratinocytes
  IA, intensity of expression per cell, Cytokeratins 1 and 10: 15.4 arbitrary units
  IA, intensity of expression per cell, panel (CAMON) of Cytokeratins: 129.8 arbitrary units
  A, percentage of immunopositive cells expressing Cytokeratins 1 and 10: 94.5
  A, percentage of immunopositive cells expressing a panel (CAMON) of Cytokeratins: 94.3
NB4 [3]
  Differentiation: yes
IMR32 [4]
  Differentiation: yes
NB4 cells
  duration of the cell cycle: 18 h
NB4 cell line
  CD11b A, percentage of immunopositive cells: 71.9
  CD11b IA, average intensity of marker expression per cell: 2.6 arbitrary units
  CD15 A, percentage of immunopositive cells: 73.1
  CD15 IA, average intensity of marker expression per cell: 73.1 arbitrary units
  CD33 A, percentage of immunopositive cells: 87.1
  CD33 IA, average intensity of marker expression per cell: 1.6 arbitrary units
IMR32 cell line; RA 1.0 μM
  GFAP %: 94.4%
  GFAP intensity: 18.4
  NF %: 96.4%
  NF intensity: 14.2
IMR32 cell line; RA 2.5 μM
  GFAP %: 90.5%
  GFAP intensity: 6.1
  NF %: 97.2%
  NF intensity: 11.9
IMR32 cell line; RA 5.0 μM
  GFAP %: 87.5%
  GFAP intensity: 5.2
  NF %: 95.5%
  NF intensity: 8.4
IMR32 cell line; RA 10.0 μM
  GFAP %: 83.1%
  GFAP intensity: 4.0
  NF %: 92.0%
  NF intensity: 7.9
NB4 [1]
  Cytostatic Effect On Cell Lines, NB4: 0
HCT116
  Cytostatic Effect On Cell Lines, HCT116: −
IMR32 [2]
  Cytostatic Effect On Cell Lines, IMR32: +
K562
  Cytostatic Effect On Cell Lines, K562: 0
